Solubility in water, IC50 and solubility data for two compounds are collected here from patent EP2588472B1, “RUPATADINE derivative AS AN ANTIHISTAMINIC AGENT” (J. Uriach y Compania S.A., priority 2010, dated 2012).

Some results are limits rather than exact numbers.

For data set [1] the following is noted: stated in background; cited from earlier work.
For data set [2], the target named is T1, human H1 receptor (Homo sapiens, UniProt P35367).
T1 construct: expressed in transfected cells; host or cells: HEK-293 (membranes)
T1 sequence (P35367 whole entry): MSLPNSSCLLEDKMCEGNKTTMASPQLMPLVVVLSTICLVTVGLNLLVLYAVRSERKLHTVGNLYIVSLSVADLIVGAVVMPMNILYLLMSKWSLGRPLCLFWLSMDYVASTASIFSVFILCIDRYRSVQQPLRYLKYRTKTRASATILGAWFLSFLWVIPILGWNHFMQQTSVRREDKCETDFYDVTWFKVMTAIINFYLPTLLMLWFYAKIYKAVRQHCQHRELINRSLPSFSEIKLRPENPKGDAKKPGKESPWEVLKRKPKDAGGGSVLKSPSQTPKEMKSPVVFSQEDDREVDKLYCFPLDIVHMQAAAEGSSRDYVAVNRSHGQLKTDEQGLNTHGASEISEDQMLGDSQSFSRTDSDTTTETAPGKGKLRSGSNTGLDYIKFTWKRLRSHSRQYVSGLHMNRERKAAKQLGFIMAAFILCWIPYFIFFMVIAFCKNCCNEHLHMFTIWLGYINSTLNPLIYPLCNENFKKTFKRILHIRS
Briefly: standard H1 binding assay ([3H]-pyrilamine displacement, scintillation counting). The following applies: recombinant HEK-293 derived membranes, [3H]-pyrilamine 1 nM, 22°C, 60 minutes. As to the method: The antiH1 activity of Compound II was assayed using a standard H1 binding assay. The test was performed following a protocol based on Smit et al. (Brit. J. Pharmacol. 1996 117(6), 1071-1080): the binding was performed on recombinant HEK-293 cells expressing the human H1 receptor. The reference compound was [^3H]-pyrilamine at 1 nM. Recombinant HEK-293 derived membranes were incubated at 22°C for 60 minutes with [^3H]-pyrilamine in the presence of different concentrations of compound II. Measurements were carried out using scintillation counting.

Data set [3] in a line: solubility in water. Format: physicochemical.

Turning to Rupatadine fumarate, the solubility in water in data set [1] was 2.9 mg/mL. The term IC50 denotes the point on the concentration scale where inhibition reaches its midpoint. Usually solubility stands for the dissolved amount per volume that the medium holds. Low values mean a poorly soluble substance, high ones a readily soluble substance. `Cc1cc(CN2CCC(=C3c4ccc(Cl)cc4CCc4cccnc43)CC2)c[n+](C(CC(=O)O)C(=O)[O-])c1` (stereo not drawn) [Compound II]: the IC50 in data set [2] was 370 nM. The solubility in data set [3] was more than 50 mg/mL.
